Assay results published in US12503425B2, “Methods of treating or controlling cytotoxic cerebral edema” (Aeromics, Inc., priority 2012, dated 2025).

Key:
AQP = AQP inhibition cell-based assay (Table 1)
[1] = Bioconversion of Compound 5 to Compound 1 in mouse plasma in vitro; format: in vitro ADME; conditions: 20° C.
[2] = tested on: middle cerebral artery occlusion (MCAo); assay: Mouse MCAo stroke model, neurological outcome (5 point scale); format: in vivo; conditions: 5 mg/kg i.p. every three hours
From the text: An improvement in neurological outcome is observed for animals given Compound 5. Control animals have an average neurological score of 2.77±0.66, while animals given Compound 5 have an average score of 0.88±0.31 (FIG. 13, inset, P=0.025, n=9 per treatment).

cerebral edema [3] = assay: Mouse water toxicity model, brain water content; format: in vivo; conditions: at 30 minutes
Experimental: Mouse Water Toxicity Model-Brain Water Content: Compounds are also tested for the ability to reduce CE in mice exposed to the water shock by examining brain water content. Mice are treated with a water bolus as described above, then sacrificed at 30 minutes. Brain water content is assessed by fresh/dry weight ratio, i.e. the brains are weighed immediately then desiccated in an oven at 100° C. for 24 h and dry weights measured (brain water percentage=[…]).

cerebral edema [4] = assay: Mouse water toxicity model, brain volume by MRI; conditions: 0.76 mg/kg, versus no drug
Experimental: The first time point at 5.67 min coincides with the scan slice at the middle of the brain during the first post-injection scan. Other time points are placed in a similar manner. The data is fitted to a single exponential equation: V/V0=Vi+dVmax(1−e^(−kt)); • where V/V0=relative brain volume, Vi=initial relative brain volume, dVmax=maximum change in relative brain volume, k=first order rate constant (min^−1), and t=time in minutes.
Mouse Water Toxicity Model-Brain Volume by Magnetic Resonance Imaging (MRI): MRI is used to measure changes in brain volume in response to water shock, using the water toxicity model. As described for the survival and brain water content studies above, mice are injected, IP, with a water bolus alone or water bolus and test compound at 0.76 mg/kg, and changes in brain volume as detected by MRI are monitored. […] This imaging method is found to provide sufficient contrast and resolution to sensitively detect changes in total brain volume in the mouse water toxicity model for cerebral edema. […] The cross sectional area of the brain in each imaging slice is measured by manual region-of-interest selection using ImageJ. Brain volumes are then calculated for each scan by summing the individual cross sectional brain areas and multiplying by the slice thickness (0.7 mm).

O=C(Nc1ccccc1)c1ccccc1 [Phenylbenzamide]
AQP inhibition Cell-Based Assay (%) (AQP): 4.5%

O=C(Nc1cc(C(F)(F)F)cc(C(F)(F)F)c1)c1cc(Cl)ccc1OP(=O)(O)O [Compound 5]
time sufficient to render Compound 5 undetectable [1]: Less than 5 minutes | progression of neurological state (in words) [2]: did not progress into a state of severe paralysis or death

O=C(Nc1cc(C(F)(F)F)cc(C(F)(F)F)c1)c1cc(Cl)ccc1O [Compound 1]
detection in plasma samples from mice injected IP with Compound 5: undetectable | reduction in CE (brain water content) (cerebral edema [3]; 0.76 mg/kg): 11.2% | reduction in CE (brain water content) (cerebral edema [3]; 7.6 mg/kg): 15.9% | reduction of the rate of CE development (cerebral edema [4]): 2.5 fold
